Values after ≈ are worked out from the molar mass of the structure shown. “Also recorded” adds a separate entry of the source. Read-outs that look alike come from different tables or passages of the source.
Tests used:
[1] = system: MSSA; experiment: MIC, broth microdilution, clinical isolates: MSSA; format: cell-based; conditions: Staphylococcus aureus, 26 clinical isolates
Experimental: (§1) To assess the MICs for antibiotic susceptibility, Gram-positive bacteria isolated from human clinical specimens were obtained from several general hospitals in Seoul, Korea, during 2002–2018. Staphylococcus aureus Giorgio and Streptococcus pneumoniae ATCC49619 were used to test in vivo efficacies against […], in mice.
(§2) The MICs of the antimicrobial agents were determined by a twofold microdilution broth method, as described by the Clinical and Laboratory Standards Institute. Briefly, test organisms were grown on Mueller–Hinton agar (MHA, BD Difco, Sparks, MD, USA) plates, subcultured into cation-adjusted Mueller–Hinton broth (CAMHB, BD Difco, Sparks, MD, USA), and incubated for 18 h at 35 °C. For S. pneumoniae culture, 5% sheep blood (Hanil Comed, Seongnam, Korea) was added. The cultured bacteria were diluted using phosphate-buffered saline (PBS) to achieve a bacterial cell density of approximately 5 × 10^6 CFU/mL. All test organisms were loaded into 96-well plates containing serial dilutions of the antimicrobial agents to achieve a concentration of 5 × 10^4 CFU/well. The plates were incubated at 35 °C for 18–20 h and examined for bacterial growth.

[2] = system: MRSA; experiment: MIC, broth microdilution, clinical isolates: MRSA; format: cell-based, Staphylococcus aureus
Experimental: as §1, §2

[3] = system: CNS (coagulase-negative staphylococci); experiment: MIC, broth microdilution, clinical isolates: CNS; format: cell-based
Experimental: as §1, §2

[4] = system: VRE; experiment: MIC, broth microdilution, clinical isolates: VRE; format: cell-based, vancomycin-resistant Enterococcus
Experimental: as §1, §2

[5] = system: S. pneumoniae; experiment: MIC, broth microdilution, clinical isolates: S. pneumoniae; format: cell-based, Streptococcus pneumoniae
Experimental: as §1, §2

[6] = system: Vancomycin-sensitive E. faecalis; experiment: MIC, broth microdilution, clinical isolates: vancomycin-sensitive E. faecalis; format: cell-based, Enterococcus faecalis
Experimental: as §1, §2

[7] = system: Vancomycin-sensitive E. faecium; experiment: MIC, broth microdilution, clinical isolates: vancomycin-sensitive E. faecium; format: cell-based, Enterococcus faecium
Experimental: as §1, §2

[8] = system: S. aureus Giorgio; experiment: MIC against S. aureus Giorgio; format: cell-based, Staphylococcus aureus
Experimental: as §2

[9] = system: S. pneumoniae ATCC49619; experiment: MIC against S. pneumoniae ATCC49619; format: cell-based; conditions: Streptococcus pneumoniae, ATCC 25922 / ATCC 49619, printed as S. pneumoniae ATCC 25922; read-out: MIC
Experimental: as §2

[10] = system: MRSA CCARM 3167; experiment: MIC against MRSA CCARM 3167; format: cell-based; conditions: Staphylococcus aureus; read-out: MIC
Experimental: as §2

[11] = system: VRE 3; experiment: MIC against VRE 3; format: cell-based, vancomycin-resistant Enterococcus; conditions: Enterococcus, read-out: MIC
Experimental: as §2

[12] = system: S. aureus Giorgio; experiment: Time-kill assay, S. aureus Giorgio; format: cell-based, Staphylococcus aureus
Experimental: (§3) Time-kill analysis was performed by the NCCLS M26-A method. The test organisms (S. aureus Giorgio, S. pneumoniae ATCC49619, MRSA CCARM 3167, and VRE 3) incubated in CAMHB for 18 h at 35 °C were diluted to 10^5 CFU/mL with fresh CAMHB, and the diluted cultures were preincubated for 2 h. For S. pneumoniae culture, 5% sheep blood (Hanil Comed, Seongnam, Korea) was added. […] Culture aliquots (0.1 mL) were removed after 0, 2, 4, 6 and 24 h of incubation, and serial 10-fold dilutions were prepared in saline as needed. The numbers of viable cells were determined on drug-free MHA plates after 20 h of incubation. A compound was considered bactericidal if the original inoculum was reduced by 3 log CFU/mL (99.9%) at each concentration or was considered bacteriostatic if the inoculum was reduced by 0–3 log CFU/mL.

[13] = system: S. pneumoniae ATCC49619; experiment: Time-kill assay, S. pneumoniae ATCC49619; format: cell-based, Streptococcus pneumoniae
Experimental: as §3

[14] = system: MRSA CCARM 3167; experiment: Time-kill assay, MRSA CCARM 3167; format: cell-based, Staphylococcus aureus
Experimental: as §3

[15] = system: VRE 3; experiment: Time-kill assay, VRE 3; format: cell-based, vancomycin-resistant Enterococcus
Experimental: as §3

[16] = system: S. aureus Giorgio; experiment: Neutropenic mouse thigh infection model; format: in vivo, female ICR mice
Experimental: (§4) For the respiratory tract infection model, neutropenic mice were anesthetized and intranasally inoculated with a 50 μL suspension of S. pneumoniae ATCC49619 (4.4 × 10^8 CFU/mL). For the thigh infection model, the neutropenic mice were administered an intramuscular injection of a 100 μL suspension of S. aureus Giorgio (1 × 10^6 CFU/mL) into both thighs. For both models, four mice were included in each group. At 2 h after infection, two mice were sacrificed, and the infected thighs or lungs (n = 4) were excised to determine the initial bacterial levels. […] At 24 h after infection, the mice were sacrificed by cervical dislocation; their thighs or lungs were removed, homogenized, serially diluted with saline, and plated onto MHA to count the number of bacteria remaining. The number of viable bacterial cells (CFU) in the thighs or lungs of vehicle- and drug-treated mice was determined.

[17] = system: S. pneumoniae ATCC49619; experiment: Neutropenic mouse respiratory tract infection model; format: in vivo, female ICR mice
Experimental: as §4

[18] = second trial, s.c. 100 mg/kg bid

CO[C@@H](C(N)=O)[C@H](NC(=O)c1ccc(NC(=O)c2ccc([N+](=O)[O-])cc2)cc1)C(=O)Nc1ccc(C(=O)Nc2ccc(C(=O)Nc3ccc(C(=O)O)c(O)c3OC(C)C)c(O)c2OC(C)C)cc1 [Coralmycin A, coralmycin A]
MIC50 ([1]; read-out: MIC50): 0.5 µg/mL (≈ 0.534 µM)
MIC90 ([1]; read-out: MIC90): 1 µg/mL (≈ 1.07 µM)
MIC90 ([2]; 42 clinical isolates): 1 µg/mL (≈ 1.07 µM)
MIC50 ([2]; Staphylococcus aureus, MRSA, 42 clinical isolates, read-out: MIC50): 1 µg/mL (≈ 1.07 µM)
MIC90 ([2]; Staphylococcus aureus, 42 MRSA isolates, read-out: MIC90): 1 µg/mL (≈ 1.07 µM)
MIC90 ([3]; 31 clinical isolates): 1 µg/mL (≈ 1.07 µM)
MIC50 ([3]; 31 clinical isolates, read-out: MIC50): 0.25 µg/mL (≈ 0.267 µM)
MIC90 ([3]; 31 coagulase-negative staphylococci isolates, read-out: MIC90): 1 µg/mL (≈ 1.07 µM)
MIC90 ([4]; 46 clinical isolates): 1 µg/mL (≈ 1.07 µM)
MIC50 ([4]; Enterococcus, VRE, 46 clinical isolates, read-out: MIC50): 0.5 µg/mL (≈ 0.534 µM)
MIC90 ([4]; Enterococcus, 46 VRE isolates, read-out: MIC90): 1 µg/mL (≈ 1.07 µM)
MIC90 ([5]; 27 clinical isolates): 1 µg/mL (≈ 1.07 µM)
MIC90 ([5]; Streptococcus pneumoniae, 27 S. pneumoniae isolates, read-out: MIC90): 1 µg/mL (≈ 1.07 µM)
MIC50 ([5]; Streptococcus pneumoniae, 27 clinical isolates, read-out: MIC50): 0.25 µg/mL (≈ 0.267 µM)
MIC90 ([6]; 32 clinical isolates): 2 µg/mL (≈ 2.14 µM)
MIC50 ([6]; Enterococcus faecalis, 32 clinical isolates, read-out: MIC50): 1 µg/mL (≈ 1.07 µM)
MIC90 ([6]; vancomycin-sensitive Enterococcus faecalis, read-out: MIC90): 2 µg/mL (≈ 2.14 µM)
MIC90 ([7]; 32 clinical isolates): 0.5 µg/mL (≈ 0.534 µM)
MIC50 ([7]; Enterococcus faecium, 32 clinical isolates, read-out: MIC50): 0.25 µg/mL (≈ 0.267 µM)
MIC90 ([7]; vancomycin-sensitive Enterococcus faecium, read-out: MIC90): 0.5 µg/mL (≈ 0.534 µM)
MIC [8]: 0.003 µg/mL (≈ 0.00321 µM)
MIC ([8]; Staphylococcus aureus, read-out: MIC): 0.006 µg/mL (≈ 0.00641 µM)
MIC [9]: 10 µg/mL (≈ 10.7 µM)
MIC [10]: 0.01 µg/mL (≈ 0.0107 µM)
MIC [11]: 0.5 µg/mL (≈ 0.534 µM)
time-kill activity ([12]; 0.5× MIC (Figure S4)): bacteriostatic (considered bacteriostatic if the inoculum was reduced by 0–3 log CFU/mL)
time-kill activity ([12]; 1× MIC): bactericidal (considered bactericidal if the original inoculum was reduced by 3 log CFU/mL (99.9%) at each concentration)
time-kill activity ([12]; 2× and 4× MIC, 24 h): bactericidal (considered bactericidal if the original inoculum was reduced by 3 log CFU/mL (99.9%) at each concentration)
time-kill activity ([13]; 0.5× MIC (Figure S4)): bacteriostatic (considered bacteriostatic if the inoculum was reduced by 0–3 log CFU/mL)
time-kill activity ([13]; 1× MIC): bactericidal (considered bactericidal if the original inoculum was reduced by 3 log CFU/mL (99.9%) at each concentration)
time-kill activity ([13]; 2× and 4× MIC, 24 h): bactericidal (considered bactericidal if the original inoculum was reduced by 3 log CFU/mL (99.9%) at each concentration)
time-kill activity ([14]; 1× MIC): bactericidal (considered bactericidal if the original inoculum was reduced by 3 log CFU/mL (99.9%) at each concentration)
time-kill activity ([14]; 2× and 4× MIC, 24 h): bactericidal (considered bactericidal if the original inoculum was reduced by 3 log CFU/mL (99.9%) at each concentration)
time-kill activity ([15]; 1× MIC): bactericidal (considered bactericidal if the original inoculum was reduced by 3 log CFU/mL (99.9%) at each concentration)
time-kill activity ([15]; 2× and 4× MIC, 24 h): bactericidal (considered bactericidal if the original inoculum was reduced by 3 log CFU/mL (99.9%) at each concentration)
antibacterial effect in thigh infection model ([16]; 20 mg/kg bid): almost no antibacterial effect
antibacterial effect in thigh infection model ([16]; s.c. 4 and 20 mg/kg at 3 and 6 h after infection): almost no antibacterial effect
in vivo effect (bacteriostatic or bactericidal) ([17]; 4 mg/kg bid s.c.): bacteriostatic effects; also recorded: static effect
in vivo effect (bacteriostatic or bactericidal) ([17]; 20 mg/kg bid s.c.): bacteriostatic effects; also recorded: static effect
in vivo effect (bacteriostatic or bactericidal) ([17]; 100 mg/kg bid s.c.): significant bactericidal effects
reduction of bacterial burden in the lungs compared to the 24-h control group ([17]; first experiment, s.c. 4 mg/kg bid): 1.43 log10 CFU
reduction of bacterial burden in the lungs compared to the 24-h control group ([17]; first experiment, s.c. 20 mg/kg bid): 1.81 log10 CFU
antibacterial effect in respiratory tract infection model ([17]; first experiment, s.c. 4 and 20 mg/kg at 3 and 6 h after infection): significant antibacterial effects
reduction of bacterial burden in the lungs compared to the 24-h control group ([17]; second trial, s.c. 4 mg/kg bid): 1.45 log10 CFU
reduction of bacterial burden in the lungs compared to the 24-h control group ([17]; second trial, s.c. 20 mg/kg bid): 1.88 log10 CFU
reduction of bacterial burden in the lungs compared to the 24-h control group [17, 18]: 3.02 log10 CFU
reduction of the starting bacterial burden compared to the 2-h control group [17, 18]: 1.34 log10 CFU/lung

— PMC9311539, “Antibacterial Activity against Clinical Isolates and In Vivo Efficacy of Coralmycins” (Antibiotics, 2022)
